{
  "source": "patent US9452119B2",
  "about": "“Nitrone compounds and their use in personal care” (Dow Global Technologies LLC, priority 2011, dated 2016)",
  "key": {"[1]": {"experiment": "Oxygen Radical Absorbance Capacity (ORAC) antioxidant potential", "set-up": "unit not given here", "settings": "calculated from ORAC values (AUC minus blank); Trolox as internal control", "method": "Antioxidant potential is evaluated using the Oxygen Radical Absorbance Capacity (ORAC) protocol. ORAC is a chemical in-vitro method based on the hydrogen atom transfer (HAT) mechanism. ORAC measures antioxidant inhibition of peroxyl radical induced oxidations and thus reflects classical radical chain breaking antioxidant activity by H atom transfer. In this assay, the peroxyl radical reacts with a fluorescent probe to form a non-fluorescent product. This is quantitated using a fluorescence measurement. Antioxidant capacity is determined by decreased rate and amount of product formed over time. This assay depends upon the free radical damage to the fluorescent probe resulting in the change in its fluorescence intensity. The change of fluorescence intensity is an indicator of the degree of free radical damage. In the presence of an antioxidant, the inhibition of free radical damage is reflected in higher fluorescence intensity and can be measured as antioxidant capacity against the free radicals. The uniqueness of ORAC assay is that the reaction is driven to completion. This allows calculation of the area under the curve (AUC) and gives an absolute quantitation of antioxidancy as opposed to relative measurements in many other assays.\nAs noted, the longer it takes to observe a decrease in fluorescence, the higher the antioxidant (AO) potential. From the AUC for a given antioxidant, the AUC for blank is subtracted to give its ORAC value. The concentration of AO needed to give the same AUC values as Trolox is calculated and used to represent the Trolox equivalent AO Capacity (TEAC). Trolox is ((±)-6-Hydroxy-2,5,7,8-tetramethylchromane-2-carboxylic acid, CAS #53188-07-1), and is used as an internal control.\nThe ORAC test is conducted in the compounds of Examples 1-5 (inventive compounds) as well as to Vitamin C, Vitamin E, and the following comparative compounds:\nThe TEAC values calculated from the ORAC values are listed the Table 2."}, "Type I collagen": {"system": "Type I collagen", "experiment": "AAPH radical induced collagen degradation, SDS-PAGE of remaining γ-chain", "assay_type": "biochemical", "settings": "incubated with AAPH at 50° C. for 90 mins; antioxidants at same concentration; FIG. 1", "method": "Type I collagen, typically found in abundance in skin, is dissolved in 0.04 M acetic acid, pH 4.3, prior to different treatments. For radical induced collagen degradation, aqueous radical initiator 2,2′-azobis-2-methyl-propanimidamide dihydrochloride (AAPH) is used. The collagen samples are incubated with AAPH in the presence of VAN-IPHA (Example 3), pHBz-IPHA (Example 6), and vitamin E (comparative) of the same concentration to determine the efficacy of these antioxidants in preventing collagen degradation. After incubation at 50° C. for 90 mins, the collagen samples are analyzed by SDS-PAGE to determine the degree of degradation by the remaining amount of γ-chain, which is a covalently cross-linked trimer for collagen."}, "collagen": {"system": "collagen", "experiment": "UVA-induced collagen degradation, SDS-PAGE / densitometry of collagen γ-bands", "assay_type": "biochemical", "settings": "antioxidant at 238 μM, UVA irradiation, FIG. 3", "method": "FIG. 3 is a densitometry plot of collagen γ-bands on SDS-PAGE of samples containing antioxidant at concentration of 238 μM.\nIn addition to the oxidative stress due to radical and ROS generation, oxidative damage to collagen can also be induced by UVA irradiation. Similar to the radical-induced collagen degradation, the effect of UVA in collagen degradation is mitigated by the presence of nitrones.\nSimilar to the prevention of radical-induced degradation, better efficacy in the inhibitory effect of preventing UVA-induced degradation is also observed for VAN-IPHA (FIG. 3). In this analysis, the effects of VAN-IPHA and pHBz-IPHA are compared to a highly efficacious antioxidant, Resveratrol. […] The stability of nitrones of the invention provide an advantageous alternative solution for antioxidant needs in cosmetic applications, such as anti-aging."}},
  "data": [
    {"compound": "CC(C)(C)/[N+]([O-])=C/c1ccccc1", "note": "[PBN, reference compound]", "values": [
      {"measurement": "TEAC (Trolox equivalent AO Capacity)", "setting": "[1]", "value": 0.04}
    ]},
    {"compound": "Cc1cc(C(C)(C)C)c(O)c(C(C)(C)C)c1", "note": "[BHT, reference compound]", "values": [
      {"measurement": "TEAC (Trolox equivalent AO Capacity)", "setting": "[1]", "value": "0.11-0.21"}
    ]},
    {"compound": "O=C1O[C@H]([C@@H](O)CO)C(O)=C1O", "note": "[Vitamin C, reference compound]", "values": [
      {"measurement": "TEAC (Trolox equivalent AO Capacity)", "setting": "[1]", "value": 0.76}
    ]},
    {"compound": "Cc1cc(/C=[N+](\\[O-])C(C)C)cc(C)c1O", "note": "[DMHBz-IPHA, (Z)-N-(4-hydroxy-3,5-dimethylbenzylidene)propan-2-amine oxide]", "values": [
      {"measurement": "TEAC (Trolox equivalent AO Capacity)", "setting": "[1]", "value": 1.56}
    ]},
    {"compound": "COc1cc(/C=[N+](\\[O-])C(C)(C)C)ccc1O", "note": "[VAN-tBHA, (Z)-N-(4-hydroxy-3-methoxybenzylidene)-2-methylpropan-2-amine oxide]", "values": [
      {"measurement": "TEAC (Trolox equivalent AO Capacity)", "setting": "[1]", "value": 4.42}
    ]},
    {"compound": "Vitamin E [reference compound]", "values": [
      {"measurement": "TEAC (Trolox equivalent AO Capacity)", "setting": "[1]", "value": 0.13}
    ]},
    {"compound": "CCCC/C=[N+](\\[O-])C(C)C", "note": "[VAL-IPHA, reference compound]", "values": [
      {"measurement": "TEAC (Trolox equivalent AO Capacity)", "setting": "[1]", "value": 0.18}
    ]},
    {"compound": "CC(C)/[N+]([O-])=C/c1ccccc1O", "note": "[SAL-IPHA, (Z)-N-(2-hydroxybenzylidene)propan-2-amine oxide]", "values": [
      {"measurement": "TEAC (Trolox equivalent AO Capacity)", "setting": "[1]", "value": 3.02}
    ]},
    {"compound": "COc1cc(/C=[N+](\\[O-])C(C)C)ccc1O", "note": "[VAN-IPHA, (Z)-N-(4-hydroxy-3-methoxybenzylidene)propan-2-amine oxide]", "values": [
      {"measurement": "TEAC (Trolox equivalent AO Capacity)", "setting": "[1]", "value": 5.41},
      {"measurement": "extent of collagen degradation (remaining γ-chain)", "setting": "Type I collagen", "value": "significantly less"},
      {"measurement": "inhibitory effect of preventing UVA-induced collagen degradation", "setting": "collagen", "value": "better efficacy than Resveratrol"},
      {"measurement": "melting point", "value": "178 to 180", "unit": "°C"}
    ]},
    {"compound": "CC(C)/[N+]([O-])=C/c1ccc(O)cc1", "note": "[pHBz-IPHA, (Z)-N-(4-hydroxybenzylidene)propan-2-amine oxide]", "values": [
      {"measurement": "TEAC (Trolox equivalent AO Capacity)", "setting": "[1]", "value": 8.67},
      {"measurement": "melting point", "value": "217 to 218", "unit": "°C"}
    ]}
  ]
}
